According to patent US10149839B2, “Chemical compounds” (AstraZeneca AB, priority 2016, dated 2018):
≈ marks a conversion by molar mass, not a printed value.

Legend:
[1] = Human plasma protein binding (equilibrium dialysis); format: in vitro ADME; conditions: dialysis 18 hours
[2] = Log D (shake flask, 1-octanol/aqueous buffer); conditions: pH 7.4, 1-octanol/aqueous buffer
[3] = Thermodynamic solubility (shake flask); format: physicochemical; conditions: aqueous phosphate buffer pH 7.4, 24 hours
[4] = molecular target: T1, Estrogen Receptor (ERα) in MCF-7 cells (Homo sapiens (Human), UniProt P03372); assay: MCF-7 ER down-regulation assay (immuno-fluorescence); format: cell-based; conditions: for IC50: 18-22 hours incubation; for % downregulation: shown in brackets where not >90%
physchem = conditions: 1-octanol/aqueous buffer, pH 7.4
[5] = Human hepatocyte assay (metabolic stability); format: in vitro ADME; conditions: cryopreserved pooled human hepatocytes (LiverPool 10 Donor), in vitro intrinsic clearance
[6] = molecular target: estrogen receptor (ERα) in CAMA-1 cells (Homo sapiens (Human), UniProt P03372); assay: Western blotting assay, CAMA-1 cells; format: cell-based; conditions: compound 100 nM, 48 h, normalised to 100 nM fulvestrant (100%)
[7] = molecular target: T1, Estrogen Receptor (ERα) in MCF-7 cells; assay: Western blotting assay, MCF-7 cells; format: cell-based; conditions: compound 100 nM, 48 h, normalised to 100 nM fulvestrant (100%)
[8] = Human Caco-2 bidirectional permeability A to B and B to A; format: in vitro ADME
[9] = Human Caco-2 passive permeability A to B Papp; format: in vitro ADME; conditions: apical pH 6.5, basolateral pH 7.4, with efflux transporter inhibitor cocktail
[10] = aqueous phosphate buffer, 25 °C, pH 7.4, aqueous buffer, thermodynamic from solid

estrogen receptor (ERα) in CAMA-1 cells, sequence (P03372 whole entry): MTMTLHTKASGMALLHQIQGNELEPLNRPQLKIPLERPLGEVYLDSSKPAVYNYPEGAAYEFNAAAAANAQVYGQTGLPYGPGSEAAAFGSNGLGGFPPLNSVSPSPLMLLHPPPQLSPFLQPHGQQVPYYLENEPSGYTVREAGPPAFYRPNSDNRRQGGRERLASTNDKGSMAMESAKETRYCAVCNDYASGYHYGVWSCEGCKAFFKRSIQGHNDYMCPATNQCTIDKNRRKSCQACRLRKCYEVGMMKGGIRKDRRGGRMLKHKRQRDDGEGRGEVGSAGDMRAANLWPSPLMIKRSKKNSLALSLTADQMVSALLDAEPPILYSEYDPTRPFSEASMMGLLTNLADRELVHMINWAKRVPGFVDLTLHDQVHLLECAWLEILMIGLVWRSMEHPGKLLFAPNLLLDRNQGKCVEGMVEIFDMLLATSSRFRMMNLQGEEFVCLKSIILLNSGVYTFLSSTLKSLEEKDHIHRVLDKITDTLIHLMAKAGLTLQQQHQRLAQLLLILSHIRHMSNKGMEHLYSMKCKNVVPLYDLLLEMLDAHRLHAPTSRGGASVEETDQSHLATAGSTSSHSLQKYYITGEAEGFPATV
T1 sequence (P03372 whole entry): as above

| Human plasma protein binding (% free) [1] [% free] | LogD pH 7.4 [2] | solubility at 24 h ([3]; 25° C.) [µM] | IC50 [4] [nM] | % downregulation [4] | solubility at 24 h [3, 10] [µM] | logD (physchem) | hepatocyte CLint at 1 µM [5] [µL/min/1e6 cells] | CAMA1 Western % ER deg vs Fv [6] [%] | MCF7 Western % ER deg vs Fv [7] [%] | Papp at 2 h ([8]; Caco-2, 2 hours, pH 7.4) [×10⁻⁶ cm/s] | efflux ratio at 2 h ([8]; Papp(B-A)/Papp(A-B), Caco-2, pH 7.4) | Papp at 2 h [9] [×10⁻⁶ cm/s] | SMILES |
| --- | --- | --- | --- | --- | --- | --- | --- | --- | --- | --- | --- | --- | --- |
| 0.41 | 3.8 | 53 (≈ 27.6 µg/mL) | – | – | – | – | – | – | – | – | – | – | COCC(C)(F)CN1[C@H](c2c(F)cc(OCCNCCCF)cc2F)c2[nH]c3ccccc3c2C[C@H]1C (single isomer, unassigned) [Example 51] |
| 0.47 | >4.1 | 14 (≈ 7.3 µg/mL) | 0.24 | (79%) | – | – | – | – | – | – | – | – | C[C@@H]1Cc2c([nH]c3ccccc23)[C@@H](c2c(F)cc(OCC(CO)NCCCF)cc2F)N1CC(C)(C)F (single isomer, unassigned) [Example 52] |
| 0.55 | >4.2 | 23 (≈ 12 µg/mL) | 0.14 | – | – | – | – | – | – | – | – | – | C[C@@H]1Cc2c([nH]c3ccccc23)[C@@H](c2c(F)cc(OCC(CO)NCCCF)cc2F)N1CC(C)(C)F (single isomer, unassigned) [Example 53] |
| 1.6 | – | – | 0.079 | – | 220 (≈ 108 µg/mL) | 3.3 | – | 76 | 90 | – | – | – | COc1cc(OCCNCCCF)ncc1[C@@H]1c2[nH]c3ccccc3c2C[C@@H](C)N1CC(C)(F)F [Example 42, N-(2-((5-((1R,3R)-2-(2,2-Difluoropropyl)-3-methyl-2,3,4,9-tetrahydro-1H-pyrido[3,4-b]indol-1-yl)-4-methoxypyridin-2-yl)oxy)ethyl)-3-fluoropropan-1-amine] |
| 2.3 | – | – | 0.17 | – | 577 (≈ 291 µg/mL) | 3.1 | – | 90 | 85 | – | – | – | C[C@@H]1Cc2c([nH]c3ccccc23)[C@@H](c2c(F)cc(NCCNCCCF)cc2F)N1CC1(F)COC1 [Example 44, N1-(3,5-difluoro-4-((1R,3R)-2-((3-fluorooxetan-3-yl)methyl)-3-methyl-2,3,4,9-tetrahydro-1H-pyrido[3,4-b]indol-1-yl)phenyl)-N2-(3-fluoropropyl)ethane-1,2-diamine] |
| 1.0 | – | – | 0.31 | – | 85 (≈ 42.7 µg/mL) | 3.5 | – | 72 | 97 | – | – | – | C[C@@H]1Cc2c([nH]c3ccccc23)[C@@H](c2c(F)cc(N(C)CCNCCCF)cc2F)N1CC1(F)CC1 [Example 45, N1-(3,5-difluoro-4-((1R,3R)-2-((1-fluorocyclopropyl)methyl)-3-methyl-2,3,4,9-tetrahydro-1H-pyrido[3,4-b]indol-1-yl)phenyl)-N2-(3-fluoropropyl)-N1-methylethane-1,2-diamine] |
| 2.3 | – | – | 0.093 | – | 952 (≈ 486 µg/mL) | 2.6 | – | 74 | 88 | – | – | – | C[C@@H]1Cc2c([nH]c3ccccc23)[C@@H](c2c(F)cc(NCCNCCCF)cc2F)N1CC(F)(F)CO [Example 46, 3-((1R,3R)-1-(2,6-difluoro-4-((2-((3-fluoropropyl)amino)ethyl)amino)phenyl)-3-methyl-1,3,4,9-tetrahydro-2H-pyrido[3,4-b]indol-2-yl)-2,2-difluoropropan-1-ol] |
| 5.0 | – | – | 0.24 | – | 840 (≈ 419 µg/mL) | 2.5 | – | 81 | 90 | – | – | – | COc1cc(NCCNCCCF)ccc1[C@@H]1c2[nH]c3ccccc3c2C[C@@H](C)N1CC1(F)COC1 [Example 47, N1-(4-((1R,3R)-2-((3-fluorooxetan-3-yl)methyl)-3-methyl-2,3,4,9-tetrahydro-1H-pyrido[3,4-b]indol-1-yl)-3-methoxyphenyl)-N2-(3-fluoropropyl)ethane-1,2-diamine] |
| 12 | – | – | 0.21 | – | 849 (≈ 430 µg/mL) | 2.2 | – | 87 | 73 | – | – | – | COc1cc(OCCNCCCF)ncc1[C@@H]1c2[nH]c3ccccc3c2C[C@@H](C)N1CC(F)(F)CO [Example 64, 2,2-difluoro-3-((1R,3R)-1-(6-(2-((3-fluoropropyl)amino)ethoxy)-4-methoxypyridin-3-yl)-3-methyl-1,3,4,9-tetrahydro-2H-pyrido[3,4-b]indol-2-yl)propan-1-ol] |
| 1.0 | – | – | 1.2 | – | 411 (≈ 196 µg/mL) | 3.4 | – | 60 | 31 | – | – | – | COc1nc(OCCNCCCF)ccc1[C@@H]1c2[nH]c3ccccc3c2C[C@@H](C)N1CC(F)F [Example 75, N-(2-((5-((1R,3R)-2-(2,2-difluoroethyl)-3-methyl-2,3,4,9-tetrahydro-1H-pyrido[3,4-b]indol-1-yl)-6-methoxypyridin-2-yl)oxy)ethyl)-3-fluoropropan-1-amine] |

Further lines, the compound ahead of its results:

| SMILES | Human plasma protein binding (% free) [1] [% free] | LogD pH 7.4 [2] | solubility at 24 h ([3]; 25° C.) [µM] | IC50 [4] [nM] | % downregulation [4] | solubility at 24 h [3, 10] [µM] | logD (physchem) | hepatocyte CLint at 1 µM [5] [µL/min/1e6 cells] | CAMA1 Western % ER deg vs Fv [6] [%] | MCF7 Western % ER deg vs Fv [7] [%] | Papp at 2 h ([8]; Caco-2, 2 hours, pH 7.4) [×10⁻⁶ cm/s] | efflux ratio at 2 h ([8]; Papp(B-A)/Papp(A-B), Caco-2, pH 7.4) | Papp at 2 h [9] [×10⁻⁶ cm/s] |
| --- | --- | --- | --- | --- | --- | --- | --- | --- | --- | --- | --- | --- | --- |
| C[C@@H]1Cc2c([nH]c3ccccc23)[C@@H](c2c(F)cc(OCCNCCCF)cc2F)N1CC(F)CF (single isomer, unassigned) [Example 16] | 1.8 | 3.1 | 149 (≈ 73.8 µg/mL) | – | – | – | – | – | – | – | – | – | – |
| C[C@@H]1Cc2c([nH]c3ccccc23)[C@@H](c2c(F)cc(OCCNCCCF)cc2F)N1CC(C)(F)CO (single isomer, unassigned) [Example 18] | 2.4 | 2.7 | 639 (≈ 324 µg/mL) | 0.65 | (85%) | – | – | – | – | – | – | – | – |
| C[C@@H]1Cc2c([nH]c3ccccc23)[C@@H](c2ccc(OCCNCCCF)cc2)N1C[C@H](F)CF (single isomer, unassigned) [Example 26] | 2.7 | 3.2 | 65 (≈ 29.9 µg/mL) | 0.38 | – | – | – | – | – | – | – | – | – |
| CC(C)CN1[C@H](c2ccc(OCCNCCC(F)F)cc2)c2[nH]c3ccccc3c2C[C@H]1C [Example 1, 3,3-difluoro-N-(2-(4-((1R,3R)-2-isobutyl-3-methyl-2,3,4,9-tetrahydro-1H-pyrido[3,4-b]indol-1-yl)phenoxy)ethyl)propan-1-amine] | 1.4 | – | – | 0.94 | – | 34 (≈ 15.5 µg/mL) | 4.6 | < 1 | – | – | – | – | – |
| CC(C)CN1[C@H](c2ccc(OCCNCCCF)cc2)c2[nH]c3ccccc3c2C[C@H]1C [Example 2, 3-fluoro-N-(2-(4-((1R,3R)-2-isobutyl-3-methyl-2,3,4,9-tetrahydro-1H-pyrido[3,4-b]indol-1-yl)phenoxy)ethyl)propan-1-amine] | 1.5 | – | – | 0.43 | – | 301 (≈ 132 µg/mL) | 3.6 | < 1 | – | – | – | – | – |
| C[C@@H]1Cc2c([nH]c3ccccc23)[C@@H](c2ccc(OCCNCCCF)cn2)N1CC(C)(C)F [Example 30, 3-fluoro-N-(2-((6-((1S,3R)-2-(2-fluoro-2-methylpropyl)-3-methyl-2,3,4,9-tetrahydro-1H-pyrido[3,4-b]indol-1-yl)pyridin-3-yl)oxy)ethyl)propan-1-amine] | 2.0 | – | – | 1.2 | – | 135 (≈ 61.6 µg/mL) | 3.4 | 5 | – | – | – | – | – |
| COc1cc(OCCNCCCF)ncc1[C@@H]1c2[nH]c3ccccc3c2C[C@@H](C)N1CC(F)F [Example 40, N-(2-((5-((1R,3R)-2-(2,2-difluoroethyl)-3-methyl-2,3,4,9-tetrahydro-1H-pyrido[3,4-b]indol-1-yl)-4-methoxypyridin-2-yl)oxy)ethyl)-3-fluoropropan-1-amine] | 5.8 | – | – | 0.17 | – | 854 (≈ 407 µg/mL) | 2.7 | 5 | 85 | 90 | 3.2 | 1.8 | 14 |
